Tests used:
[1] = tested on: wild type sugar beet protoplasts; assay: killing curve for optimal herbicide concentration; assay type: cell-based, sugar beet (Beta vulgaris L.); settings: killing curve (Table 1 and Table 2)
Procedure: The optimal herbicide (ALS inhibitor) concentration used in the method according to the invention was determined from a killing curve concentration for two preferred ALS inhibitors (Foramsulfuron and Ethoxysulfuron) and was established as follows: • To use optimal concentration of herbicide for selection of transformed sugar beet protoplasts, killing curve was developed on wild type sugar beet protoplasts with the following concentrations (Table 1 and Table 2). Based on the results obtained from the killing curve experiments concentration of 5×10^−9M for foramsulfuron and 5×10^−11M for ethoxysulfuron were selected for using with transformed sugar beet protoplasts with pS189 plasmid DNA carrying the mutated BvALS nucleotide sequence.

[2] = tested on: non-transformed protoplasts; assay: control experiment: non-transformed protoplasts on selection media; assay type: cell-based, sugar beet (Beta vulgaris L.)
Procedure: Transformation experiments were performed using plasmid DNA (pS189) according to the standard PEG transformation system under two selection media containing 5×10^−9M foramsulfuron (ALF) and 5×10^−11M ethoxysulfuron (ALE) concentrations. The selection of only the transformed protoplasts were evidenced by the number of calli recovered from each transformation experiment. […] So far seven transformation experiments were performed for ALF and six experiments for ALE. From ALF experiments, about 1799 buds and 89 regenerated plantlets were obtained (Table 3).

Structure (SMILES) | concentration selected from killing curve experiments for selection of transformed protoplasts [1] [nM] | calli / survival of cells on selection medium ([2]; selection medium containing 5×10^−9M foramsulfuron (ALF)) | calli / survival of cells on selection medium ([2]; selection medium containing 5×10^−11M ethoxysulfuron (ALE))
COc1cc(OC)nc(NC(=O)NS(=O)(=O)c2cc(NC=O)ccc2C(=O)N(C)C)n1 [foramsulfuron] | 5 | did not result in any calli or survival of cells | 
CCOc1ccccc1OS(=O)(=O)NC(=O)Nc1nc(OC)cc(OC)n1 [ethoxysulfuron] | 0.05 |  | did not result in any calli or survival of cells

Reference: US20170335336A1, “USE OF A SELECTABLE MARKER GENE IN SUGAR BEET PROTOPLASTS TRANSFORMATION METHOD AND SYSTEM” (SESVanderHave N.V., priority 2014, published 2017)
